Patent publication US20170008888A1 (KYORIN PHARMACEUTICAL CO., LTD., priority 2014, published 2017)
Marks after values point to notes of the source that are not given here.

Experiments:
[1] = test system: DNFB-induced ear inflammation mouse model; experiment: DNFB-induced ear inflammation (contact hypersensitivity) mouse model: ear weight; type: in vivo, mouse (Balb/c)
Procedure: In vivo T-cell mediated immune response was examined in a mouse model of CHS using the hapten dinitrofluorobenzene (DNFB) as the induction agent. Method for sensitization and elicitation of DNFB-induced CHS was modified from Xu et al. J. Exp. Med. 1996. 183:1001-1012. On Days 0 and 1 (sensitization), 20 μL of 0.5% v/v DNFB in acetone:olive oil (4:1) was applied to each hindpaw of 8 week old male mice (Balb/c, Charles River Laboratories; 10 mice per group unless otherwise noted). On Day 5 (elicitation) 10 μL of 0.2% v/v DNFB in acetone: olive oil (4:1) was applied to the dorsal surface of the right ear of each animal; 10 μL of acetone: olive oil (4:1) was applied to the dorsal surface of the left ear as control. Treatments were administered by group as indicated in the table below; on days when DNFB was used, the QD and the morning dose of BID as appropriate were administered 30 minutes-1 hr. prior to DNFB application. […] Approximately 24 hours after elicitation (Day 6), a 7 mm tissue punch from the central portion of both ears was collected and wet weights measured. The primary functional assessment was the difference in wet weights of the right (DNFB) vs. left (vehicle) ears compared to the vehicle treatment (Vehicle1-S) as an indicator of inflammation (Table 17). Ear tissue punches were flash frozen, stored at −70° C. and analyzed for cytokines (see below). Body weights of the mice were measured at baseline and at end of study, and there were no significant changes in weight in any treatment group during the study (data not shown).

[2] = test system: Imiquimod-induced psoriasis mouse model; experiment: Imiquimod (IMQ)-induced acute model of psoriasis in mouse: skin thickness, erythema, scaling; type: in vivo, mouse (Balb/c)
Procedure: Material and methods for the IMQ study were adapted from van der Fits et al. J Immunol., 2009, 182: 5836-5845. Eight week old male Balb/c mice (Harlan) received a daily topical dose of 62.5 mg 5% IMQ cream (Aldara™, Medicis) equivalent to 3.125 mg IMQ, on the shaved back (approximately 2×3.5 cm patch) and dorsal surface of the right ear for 6 consecutive days. Sham control mice were treated similarly with control cream (Hydrous Emulsified Base, HEB, Cream, Fagron). Treatments were administered by group as indicated in Table 1 below prior to daily application of IMQ (QD and morning dose of BID regimens), n=10 for all groups. […] Body weights and scoring of induced clinical disease were performed after dosing (Days 1-7) but prior to IMQ application (Days 1-6) on Days 1 (baseline), 3, 4, 6, 8. Mice were sacrificed on Day 8 and treated back skin tissue collected and divided for fixation for histopathology (a 12 mm punch in mid-back) the remainder flash frozen; right (IMQ) and left (control) ears, spleen (after wet weight) and lung were also individually collected and flash frozen, and stored at −70° C. for subsequent biochemical analyses. Statistics were performed using one-way ANOVA with Dunnett's post-hoc test comparing treated groups to the vehicle group, using InStat software (GraphPad, La Jolla, Calif.).
The severity of clinical disease was assessed by
1) skin thickness dial gauge micrometer measurements (duplicate) of the ears and the dorsal skin at the midline of the back (equal to double true measure of dorsal skin thickness)
2) erythema and scaling, independently scored on a scale from 0-4: 0=none, 1=slight, 2=moderate, 3=marked, 4=very marked with intermediate increments of 0.5 allowed.
Clinical disease assessments included erythema, scaling, skin thickness and cumulative disease severity scores and the change in skin thickness of the ears and dorsal back skin over time compared to baseline measurements (Tables 19 and 20). Body weights of the mice were measured at baseline and at end of study, and there were no significant changes in weight in any treatment group during the study (data not shown).

ATAD2B = molecular target: T1, ATAD2B (Homo sapiens, UniProt Q9ULI0); experiment: Bromodomain binding assay: ATAD2B
T1 construct: T7 phage strains displaying bromodomains were grown in parallel; made in house; host or cells: E. coli host derived from BL21, infected with T7 phage
Procedure: (§1) T7 phage strains displaying bromodomains were grown in parallel in 24-well blocks in an E. coli host derived from the BL21 strain. E. coli were grown to log-phase and infected with T7 phage from a frozen stock (multiplicity of infection=0.4) and incubated with shaking at 32° C. until lysis (90-150 minutes). The lysates were centrifuged (5,000×g) and filtered (0.2 μm) to remove cell debris. […] The liganded beads were blocked with excess biotin and washed with blocking buffer (SeaBlock (Pierce), 1% BSA, 0.05 Tween 20, 1 mM DTT) to remove unbound ligand and to reduce non-specific phage binding. […] Test compounds (T62 and 46) were prepared as 1000× stocks in 100% DMSO and subsequently diluted 1:10 in monoethylene glycol (MEG) to create stocks at 100× the screening concentration (resulting stock solution is 10% DMSO/90% MEG). The compounds were then diluted directly into the assays such that the final concentration of DMSO and MEG were 0.1% and 0.9%, respectively. All reactions were performed in polystyrene 96-well plates in a final volume of 0.135 ml. […] The bromodomain concentration in the eluates was measured by qPCR. Compounds were assayed for binding activity against a panel of 40 bromodomain-containing proteins.

BRD1 = molecular target: T2, BRD1 (Homo sapiens, UniProt O95696); experiment: Bromodomain binding assay: BRD1
T2 construct: T7 phage strains displaying bromodomains were grown in parallel; made in house; host or cells: E. coli host derived from BL21, infected with T7 phage
Procedure: as §1

T1 sequence (Q9ULI0 951-1066 limits assumed, species assumed): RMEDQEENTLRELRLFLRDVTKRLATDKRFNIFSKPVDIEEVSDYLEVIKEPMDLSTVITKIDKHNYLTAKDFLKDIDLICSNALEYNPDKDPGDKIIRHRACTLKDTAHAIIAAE
T2 sequence (O95696 562-666 limits assumed, species assumed): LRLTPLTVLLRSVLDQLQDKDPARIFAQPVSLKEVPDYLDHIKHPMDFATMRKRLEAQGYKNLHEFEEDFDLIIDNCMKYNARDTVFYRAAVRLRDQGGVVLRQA

`CCOc1cc(C(=O)N2CCC(N3CCCC3)CC2)ccc1Nc1cc2c(cn1)N(C)C(=O)c1ccccc1N2C` [Compound 46, 3-(2-Ethoxy-4-(4-(pyrrolidin-1-yl)piperidine-1-carbonyl)phenylamino)-5,11-dimethyl-5H-benzo[e]pyrido[3,4-b][1,4]diazepin-10(11H)-one] was tested, and the “% Reduction Weight Increase Vs. Vehicle 1 Weight Increase” value ([1]; 25 mg/kg PO, BID on Day 5 (elicitation)) was −39.5%, the “% Reduction Weight Increase Vs. Vehicle 1 Weight Increase” value ([1]; 60 mg/kg PO, BID Days 0-5 (from sensitization)) was −39.5% and the “% Reduction Weight Increase Vs. Vehicle 1 Weight Increase” value ([1]; 60 mg/kg PO, BID on Day 5 (elicitation)) was −40.5%. For the same compound, the “Clinical Score Erythema (0-4), AVG Score” value ([2]; Day 1 (baseline), 60 mpk BID) was 0, the “Clinical Score Scaling (0-4), AVG Score” value ([2]; Day 1 (baseline), 60 mpk BID) was 0 and the “Clinical Score Erythema (0-4), AVG Score” value ([2]; Day 1 (baseline), 60 mpk QD) was 0. The “Clinical Score Scaling (0-4), AVG Score” value ([2]; Day 1 (baseline), 60 mpk QD) was 0, the “% Mean DORSAL BACK THICKNESS versus day 1, AVG” value ([2]; Day 3, 25 mpk BID) was 29.55% and the “% Mean LEFT EAR THICKNESS [Control] versus day 1, AVG” value (from here on “% Mean LEFT EAR THICKNESS”) ([2]; Day 3, 25 mpk BID) was −7.42%. The “% Mean RIGHT EAR THICKNESS [IMQ] versus day 1, AVG” value (“% Mean RIGHT EAR THICKNESS” for short) ([2]; Day 3, 25 mpk BID) was 6.71%, the “% Mean DORSAL BACK THICKNESS versus day 1, AVG” value ([2]; Day 3, 60 mpk BID) was 34.79% and the “% Mean LEFT EAR THICKNESS” value ([2]; Day 3, 60 mpk BID) was −8.07%. For the same compound, the “% Mean RIGHT EAR THICKNESS” value ([2]; Day 3, 60 mpk BID) was 3.35%, the “Clinical Score Erythema (0-4), AVG Score” value ([2]; Day 3, 60 mpk BID) was 1.15 and the “Clinical Score Scaling (0-4), AVG Score” value ([2]; Day 3, 60 mpk BID) was 0.5. The “% Mean DORSAL BACK THICKNESS versus day 1, AVG” value ([2]; Day 3, 60 mpk QD) was 41.12%, the “% Mean LEFT EAR THICKNESS” value ([2]; Day 3, 60 mpk QD) was −8.74% and the “% Mean RIGHT EAR THICKNESS” value ([2]; Day 3, 60 mpk QD) was 3.71%. The “Clinical Score Erythema (0-4), AVG Score” value ([2]; Day 3, 60 mpk QD) was 1.05, the “Clinical Score Scaling (0-4), AVG Score” value ([2]; Day 3, 60 mpk QD) was 0.5 and the “% Mean DORSAL BACK THICKNESS versus day 1, AVG” value ([2]; Day 4, 25 mpk BID) was 43.62%. The “% Mean LEFT EAR THICKNESS” value ([2]; Day 4, 25 mpk BID) was −5.56%, the “% Mean RIGHT EAR THICKNESS” value ([2]; Day 4, 25 mpk BID) was 12.03% and the “% Mean DORSAL BACK THICKNESS versus day 1, AVG” value ([2]; Day 4, 60 mpk BID) was 45.39%. The “% Mean LEFT EAR THICKNESS” value ([2]; Day 4, 60 mpk BID) was −3.95%, the “% Mean RIGHT EAR THICKNESS” value ([2]; Day 4, 60 mpk BID) was 11.25% and the “Clinical Score Erythema (0-4), AVG Score” value ([2]; Day 4, 60 mpk BID) was 1.3. For the same compound, the “Clinical Score Scaling (0-4), AVG Score” value ([2]; Day 4, 60 mpk BID) was 0.55, the “% Mean DORSAL BACK THICKNESS versus day 1, AVG” value ([2]; Day 4, 60 mpk QD) was 54.57% and the “% Mean LEFT EAR THICKNESS” value ([2]; Day 4, 60 mpk QD) was −7.01%. For the same compound, the “% Mean RIGHT EAR THICKNESS” value ([2]; Day 4, 60 mpk QD) was 9.53%, the “Clinical Score Erythema (0-4), AVG Score” value ([2]; Day 4, 60 mpk QD) was 1.3 and the “Clinical Score Scaling (0-4), AVG Score” value ([2]; Day 4, 60 mpk QD) was 0.6. For the same compound, the “% Mean DORSAL BACK THICKNESS versus day 1, AVG” value ([2]; Day 6, 25 mpk BID) was 84.46* %, the “% Mean LEFT EAR THICKNESS” value ([2]; Day 6, 25 mpk BID) was −1.35% and the “% Mean RIGHT EAR THICKNESS” value ([2]; Day 6, 25 mpk BID) was 37.60* %. For the same compound, the “% Mean DORSAL BACK THICKNESS versus day 1, AVG” value ([2]; Day 6, 60 mpk BID) was 72.41** %, the “% Mean LEFT EAR THICKNESS” value ([2]; Day 6, 60 mpk BID) was 1.37% and the “% Mean RIGHT EAR THICKNESS” value ([2]; Day 6, 60 mpk BID) was 33.34** %. The “Clinical Score Erythema (0-4), AVG Score” value ([2]; Day 6, 60 mpk BID) was 1.65, the “Clinical Score Scaling (0-4), AVG Score” value ([2]; Day 6, 60 mpk BID) was 2.55 and the “% Mean DORSAL BACK THICKNESS versus day 1, AVG” value ([2]; Day 6, 60 mpk QD) was 90.77^NS %. For the same compound, the “% Mean LEFT EAR THICKNESS” value ([2]; Day 6, 60 mpk QD) was 8.65%, the “% Mean RIGHT EAR THICKNESS” value ([2]; Day 6, 60 mpk QD) was 38.11* % and the “Clinical Score Erythema (0-4), AVG Score” value ([2]; Day 6, 60 mpk QD) was 2.25. For the same compound, the “Clinical Score Scaling (0-4), AVG Score” value ([2]; Day 6, 60 mpk QD) was 3.05, the “% Mean DORSAL BACK THICKNESS versus day 1, AVG” value ([2]; Day 8, 25 mpk BID) was 46.07^NS % and the “% Mean LEFT EAR THICKNESS” value ([2]; Day 8, 25 mpk BID) was −3.26%. For the same compound, the “% Mean RIGHT EAR THICKNESS” value ([2]; Day 8, 25 mpk BID) was 43.36** %, the “% Mean DORSAL BACK THICKNESS versus day 1, AVG” value ([2]; Day 8, 60 mpk BID) was 41.36^NS % and the “% Mean LEFT EAR THICKNESS” value ([2]; Day 8, 60 mpk BID) was −1.92%. The “% Mean RIGHT EAR THICKNESS” value ([2]; Day 8, 60 mpk BID) was 40.66** %, the “Clinical Score Erythema (0-4), AVG Score” value ([2]; Day 8, 60 mpk BID) was 1.3 and the “Clinical Score Scaling (0-4), AVG Score” value ([2]; Day 8, 60 mpk BID) was 1.45. For the same compound, the “% Mean DORSAL BACK THICKNESS versus day 1, AVG” value ([2]; Day 8, 60 mpk QD) was 45.99^NS %, the “% Mean LEFT EAR THICKNESS” value ([2]; Day 8, 60 mpk QD) was 0.14% and the “% Mean RIGHT EAR THICKNESS” value ([2]; Day 8, 60 mpk QD) was 48.04** %. The “Clinical Score Erythema (0-4), AVG Score” value ([2]; Day 8, 60 mpk QD) was 1.1, the “Clinical Score Scaling (0-4), AVG Score” value ([2]; Day 8, 60 mpk QD) was 1.7 and the Kd (ATAD2B) was greater than 20 µM. For the same compound, the Kd (BRD1) was greater than 20 µM.
`CCOc1cc(C(=O)N[C@H]2CC[C@H](O)CC2)ccc1Nc1cc2c(cn1)N(C)C(=O)c1ccccc1N2C` [Compound T62] was tested, and the Kd (ATAD2B) was greater than 20 µM and the Kd (BRD1) was greater than 20 µM.
